These results are taken from article PMC2868066 (Biochemistry, 2010).

By MIC is commonly meant the lowest concentration that inhibits growth of the organism. The low end stands for a more susceptible organism, the high end for a less susceptible organism.

The subject of one test is S. aureus ATCC 29213. It is filed as cell-based. Conditions: ATCC 29213, 18 h.
The subject of another test is E. coli K12. The class given is cell-based. As to conditions: K12, 18 h.
For the next test, the system named is S. aureus / E. coli. As to conditions: cited from earlier work.

In brackets after ≈: the same amount, converted by molar mass. Peptide text beside a SMILES is read from it. Where only a bound is given, the exact number is not on record here.

With `CC[C@H](C)[C@H](NC(=O)CN)C(=O)NCC(=O)N[C@@H](CCCCN)C(=O)N[C@@H](Cc1ccccc1)C(=O)N[C@@H](CC(C)C)C(=O)N[C@@H](CCCCN)C(=O)N[C@@H](CCCCN)C(=O)N[C@@H](C)C(=O)N[C@@H](CCCCN)C(=O)N[C@@H](CCCCN)C(=O)N[C@@H](Cc1ccccc1)C(=O)NCC(=O)N[C@@H](CCCCN)C(=O)N[C@@H](C)C(=O)N[C@@H](Cc1ccccc1)C(=O)N[C@H](C(=O)N[C@@H](CCCCN)C(=O)N[C@H](C(=O)N[C@@H](CC(C)C)C(=O)N[C@@H](CCCCN)C(=O)N[C@@H](CCCCN)C(N)=O)[C@@H](C)CC)C(C)C` [MSI-78] (H-GIGKFLKKAKKFGKAFVKILKK-NH2), the MIC in the test on S. aureus ATCC 29213 worked out at 12.5 µg/mL (≈ 5.05 µM).

Regarding `CC[C@H](C)[C@H](NC(=O)[C@H](CCCCN)NC(=O)CNC(=O)[C@H](C)NC(=O)[C@@H](NC(=O)[C@H](CCCCN)NC(=O)[C@H](C)NC(=O)[C@@H](NC(=O)[C@H](CCCCN)NC(=O)CNC(=O)[C@H](C)NC(=O)[C@@H](NC(=O)[C@H](CCCCN)NC(=O)[C@H](C)NC(=O)[C@@H](NC(=O)[C@H](CCCCN)NC(=O)CNC(=O)[C@H](C)NC(=O)[C@@H](NC(=O)[C@@H](N)CCCCN)[C@@H](C)CC)[C@@H](C)CC)[C@@H](C)CC)[C@@H](C)CC)[C@@H](C)CC)C(=O)N[C@@H](C)C(N)=O` [MSI-103] (H-KIAGKIAKIAGKIAKIAGKIA-NH2), the MIC came to 25 µg/mL (≈ 12.1 µM) in the test with S. aureus ATCC 29213 and 1.6 µg/mL (≈ 0.776 µM) in the test with E. coli K12.

As for Cateslytin, the “MIC S. aureus/MIC E. coli” value in the test with S. aureus / E. coli is listed as >3.
